From patent publication US8637537B2, “Serine/threonine kinase inhibitors” (Genentech, Inc., priority 2011, dated 2014)

Target: T1, human recombinant GST-PAK1-KD protein (Homo sapiens, UniProt Q13153)
T1 construct: residues #249-545 of human PAK1, UniProtKP/Swiss Q13153; His6 (N); made in house; host or cells: Sf9 insect cells, pAcGP67 baculovirus expression vector
Experiment: GST-PAK1-KD (kinase domain) biochemical assay, microfluidic mobility shift
Conditions: Table II, PAK1 Ki class; read-out: Ki

T1 sequence (Q13153 249-545): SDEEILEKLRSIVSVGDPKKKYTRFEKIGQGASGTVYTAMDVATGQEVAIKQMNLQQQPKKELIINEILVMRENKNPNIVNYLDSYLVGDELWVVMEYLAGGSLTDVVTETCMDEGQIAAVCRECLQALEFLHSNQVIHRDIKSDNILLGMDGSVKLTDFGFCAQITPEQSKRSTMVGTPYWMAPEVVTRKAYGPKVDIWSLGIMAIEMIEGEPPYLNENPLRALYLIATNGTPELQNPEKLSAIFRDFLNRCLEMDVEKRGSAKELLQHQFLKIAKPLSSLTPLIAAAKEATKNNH

SMILES	Ki [nM]
Cc1n[nH]c2cc(Cl)cc(CNc3nccc(Nc4cc(C5CC5)[nH]n4)n3)c12 [II-12, N^2-((6-Chloro-3-methyl-1H-indazol-4-yl)methyl)-N^4-(5-cyclopropyl-1H-pyrazol-3-yl)pyrimidine-2,4-diamine]	< 50
Cc1cc(CNc2nccc(Nc3cc(C4CC4)[nH]n3)n2)c2cn[nH]c2c1 [II-13, N^4-(5-Cyclopropyl-1H-pyrazol-3-yl)-N^2-((6-methyl-1H-indazol-4-yl)methyl)pyrimidine-2,4-diamine]	< 50
CN(Cc1cc(Cl)cc2[nH]cnc12)c1nccc(Nc2cc(C3CC3)[nH]n2)n1 [II-14, N^2-((6-Chloro-1H-benzo[d]imidazol-4-yl)methyl)-N^4-(5-cyclopropyl-1H-pyrazol-3-yl)-N^2-methylpyrimidine-2,4-diamine]	< 50
Cc1cc2c(CNc3nccc(Nc4cc(C5CC5)[nH]n4)n3)cccc2[nH]1 [II-15, N^4-(5-Cyclopropyl-1H-pyrazol-3-yl)-N^2-((2-methyl-1H-indol-4-yl)methyl)pyrimidine-2,4-diamine]	< 50
Cc1nc2c(CNc3nccc(Nc4cc(C5CC5)[nH]n4)n3)cc(Cl)cc2[nH]1 [II-17, N^2-((6-Chloro-2-methyl-1H-benzo[d]imidazol-4-yl)methyl)-N^4-(5-cyclopropyl-1H-pyrazol-3-yl)pyrimidine-2,4-diamine]	< 50
C[C@H](Nc1nccc(Nc2cc(C3CC3)[nH]n2)n1)c1cc(F)cc2[nH]cnc12 [II-18, (S)-N^4-(5-cyclopropyl-1H-pyrazol-3-yl)-N^2-(1-(6-fluoro-1H-benzo[d]imidazol-4-yl)ethyl)pyrimidine-2,4-diamine]	< 50
Cc1n[nH]c2cccc(CN(C)c3nccc(Nc4cc(C5CC5)[nH]n4)n3)c12 [II-19, N^4-(5-Cyclopropyl-1H-pyrazol-3-yl)-N^2-methyl-N^2-((3-methyl-1H-indazol-4-yl)methyl)pyrimidine-2,4-diamine]	< 50
Fc1ccc2[nH]ccc2c1CNc1nccc(Nc2cc(C3CC3)[nH]n2)n1 [II-20, N^4-(5-cyclopropyl-1H-pyrazol-3-yl)-N^2-((5-fluoro-1H-indol-4-yl)methyl)pyrimidine-2,4-diamine]	< 50
C[C@@H](Oc1cc(Nc2ccnc(N(C)Cc3ccc4[nH]cnc4c3Cl)n2)n[nH]1)c1ccccc1 [II-21, (R)-N^2-((4-Chloro-1H-benzo[d]imidazol-5-yl)methyl)-N^2-methyl-N^4-(5-(1-phenylethoxy)-1H-pyrazol-3-yl)pyrimidine-2,4-diamine]	< 50
COc1n[nH]c2cccc(CNc3nccc(Nc4cc(C5CC5)[nH]n4)n3)c12 [II-22, N^4-(5-Cyclopropyl-1H-pyrazol-3-yl)-N^2-((3-methoxy-1H-indazol-4-yl)methyl)pyrimidine-2,4-diamine]	< 50
Cc1cc(CNc2ncc(F)c(Nc3cc(C4CC4)[nH]n3)n2)c2cn[nH]c2c1 [II-25, N^4-(5-Cyclopropyl-1H-pyrazol-3-yl)-5-fluoro-N^2-((6-methyl-1H-indazol-4-yl)methyl)-pyrimidine-2,4-diamine]	< 50
CC(C)N(Cc1ccc2[nH]cnc2c1)c1nccc(Nc2cc(C3CC3)[nH]n2)n1 [II-26, N^2-((1H-Benzo[d]imidazol-5-yl)methyl)-N^4-(5-cyclopropyl-1H-pyrazol-3-yl)-N^2-isopropylpyrimidine-2,4-diamine]	< 50
Fc1cc(CNc2nccc(Nc3cc(C4CC4)[nH]n3)n2)c2nc[nH]c2c1 [II-27, N^4-(5-Cyclopropyl-1H-pyrazol-3-yl)-N^2-((6-fluoro-1H-benzo[d]imidazol-4-yl)methyl)-pyrimidine-2,4-diamine]	50 to 250
Cc1cc(CNc2nccc(Nc3cc(C4CC4)[nH]n3)n2)c2nc[nH]c2c1 [II-28, N^4-(5-Cyclopropyl-1H-pyrazol-3-yl)-N^2-((6-methyl-1H-benzo[d]imidazol-4-yl)methyl)-pyrimidine-2,4-diamine]	50 to 250
